# Laboratory results published in patent US9476030B2, “Self-renewing endodermal progenitor lines generated from human pluripotent stem cells and methods of use thereof” (The Children's Hospital of Philadelphia, priority 2011, dated 2016).
# Assays:
# Format in all cases: cell-based, human
# H9-EP cells [1] = experiment: Flow cytometric analysis of SOX17 / PDX1 / FOXA1 in EP cells under various media conditions; design: SOX17 expression in EP cells: dose or concentration left out as unconfirmed
# Protocol: (§1) FIG. 4. Cytokine Requirements and Critical Signaling Pathways for EP Cell Maintenance and Differentiation. […] In each condition, one of the four cytokines was omitted or inhibitors of signaling pathways were added. The H9-EP cell line was grown for 1 week in optimal EP Basic Media (BASIC) or in the absence of BMP4, or bFGF or VEGF. (A) Flow cytometric analyses of SOX17 versus PDX1, or SOX17 versus FOXA1 are shown. […] (C-D) To evaluate the role of TGF signaling in EP cell maintenance and differentiation, the small molecule inhibitor SB431542 was added to EP media. (C) H9-EP cells were cultured in normal EP media (BASIC) or in EP media supplemented with SB431542 (6 M) either in the presence (+SB) or the absence of BMP4 (−BMP+SB). Cells were harvested at day 6. Flow cytometric analyses of SOX17 versus FOXA1 are shown. (D) H9-EP cells were cultured in the presence (SB, red circles) or the absence (BASIC, blue squares) of SB431542 for 3 passages and cell growth analyzed by cell counts at each passage. […] Cells were harvested at day 14 of differentiation, and were compared to those derived from SB-untreated group (BASIC). Flow cytometric analyses of C-peptide versus Glucagon are shown.
# Single cell suspensions were obtained by dissociating day 5 transient endoderm, EP cell cultures, or EP cell differentiation cultures with 0.25% trypsin at 37° C. for 3-5 minutes. Cell surface antigen staining was performed in IMDM with 10% fetal calf serum. For intracellular staining, cells were fixed with 1.6% paraformaldehyde (Electron Microscopy Sciences) at 37 C for 20 minutes, and then washed twice with PBS+1% BSA. The fixed cells were permeabilized and stained in 1× Permeabilization Wash Buffer (BioLegend, 421002). The stained cells were analyzed with the BD FACS Canto II Flow Cytometer (BD Biosciences), and the data was analyzed using the Flowjo software (TreeStar). The sources and concentrations of primary, secondary antibodies and isotype controls are listed below.
# H9-EP cells [2] = experiment: EP cell maintenance: cell number / cell growth under various media conditions; settings: for proliferation of EP cells (total cell number after 7-day expansion): FIG. 4B
# Protocol: as §1
# Cells were fed every two days, and were split at 1×10^6/58 cm^2 every 6 days by trypsinization. The small molecule inhibitors PD0325901 (Sebolt-Leopold et al., 2004; Ying et al., 2008), PD173074 (Mohammadi et al., 1998) and SB431542 (Laping et al, 2002; Inman et al., 2002) were purchased from Cayman Chemicals and Stemgent, respectively.
# H9-EP and iPS2-EP cells = experiment: Pancreatic differentiation of EP cells after culture with SB431542; settings: EP cells cultured with SB431542 for 5 days, then differentiated, day 14, FIG. 4E
# Protocol: FIG. 4. Cytokine Requirements and Critical Signaling Pathways for EP Cell Maintenance and Differentiation. […] In each condition, one of the four cytokines was omitted or inhibitors of signaling pathways were added. The H9-EP cell line was grown for 1 week in optimal EP Basic Media (BASIC) or in the absence of BMP4, or bFGF or VEGF. (A) Flow cytometric analyses of SOX17 versus PDX1, or SOX17 versus FOXA1 are shown. […] (C-D) To evaluate the role of TGF signaling in EP cell maintenance and differentiation, the small molecule inhibitor SB431542 was added to EP media. […] Cells were harvested at day 6. Flow cytometric analyses of SOX17 versus FOXA1 are shown. […] Cells were harvested at day 14 of differentiation, and were compared to those derived from SB-untreated group (BASIC). Flow cytometric analyses of C-peptide versus Glucagon are shown. […] (2011), was modified by omitting the first step, and by adding-secretase inhibitor X (Calbiochem, 2 M) from day 8 to day 12 of differentiation, as well as by adding human insulin (Sigma, 800 pM) and nicotinamide (Sigma, 10 mM) from day 10 and onwards. […] Mouse Wnt3a was supplemented to the step 2 media at 3 ng/ml. From day 10 and onwards, the medium was alternated every day between high dextrose (60 mM) and low dextrose (20 mM). […] Insulin secretion was calculated based on the total cell number and the percentage of c-peptide+ cells of each experiment. […]
# [3] = withdrawal of the cytokine, within one week, FIG. 4A
# [4] = withdrawal of the cytokine from EP basic media
# [5] = inhibitor of FGF/Ras/MEK pathway added to EP media
compound,measurement,setting,value
BMP4: human cytokine in EP basic medium (50 ng/ml),PDX1 expression in EP cells,H9-EP cells [1]; [3],up-regulation of PDX1
same,SOX17 expression in EP cells,H9-EP cells [1]; [3],almost complete loss of SOX17 expression
"EGF: human cytokine in EP basic medium (10 ng/ml) (NSDSECPLSHDGYCLHDGVCMYIEALDKYACNCVVGYIGERCQYRDLKWWELR; UniProt P01133 971-1023, looked up)",proliferation of EP cells (total cell number after 7-day expansion),H9-EP cells [2]; [4],significant decrease in proliferation
CCN(CC)CCCCNc1ncc2cc(-c3cc(OC)cc(OC)c3)c(NC(=O)NC(C)(C)C)nc2n1 [PD173074],proliferation of EP cells (total cell number after 7-day expansion),H9-EP cells [2]; [5],reduced proliferation dramatically
bFGF: human cytokine in EP basic medium (10 ng/ml),proliferation of EP cells (total cell number after 7-day expansion),H9-EP cells [2]; [4],reduced proliferation dramatically
NC(=O)c1ccc(-c2nc(-c3ccc4c(c3)OCO4)c(-c3ccccn3)[nH]2)cc1 [SB431542],SOX17 expression in EP cells,"H9-EP cells [1]; EP media supplemented with SB431542, harvested at day 6, FIG. 4C",completely abolished SOX17 expression
same,differentiation of EP cells into pancreatic β-cells,H9-EP and iPS2-EP cells,inhibited differentiation into pancreatic β-cells
same,proliferation of EP cells (relative cell growth over 3 passages),"H9-EP cells [2]; SB431542 added to EP media, FIG. 4D",drastically suppressed proliferation
VEGF,proliferation of EP cells (total cell number after 7-day expansion),H9-EP cells [2]; [4],significant decrease in proliferation
O=C(NOC[C@H](O)CO)c1ccc(F)c(F)c1Nc1ccc(I)cc1F [PD0325901],proliferation of EP cells (total cell number after 7-day expansion),H9-EP cells [2]; [5],reduced proliferation dramatically
